ChEMBL document CHEMBL1139100, “Discovery of anticonvulsant activity of abietic acid through application of linear discriminant analysis” (Bioorg Med Chem Lett, 2007)
Activity calls are given as the source filed them. The rule behind the calls is not given here.

Experiments:
Mus musculus [1] = experiment: Anticonvulsant activity in Swiss mouse at 30 mg/kg, ip after 0.5 hrs by MES test; type: functional, organism-based; parameters: dose 30 mg/kg
Mus musculus [2] = experiment: Anticonvulsant activity in Swiss mouse at 30 mg/kg, po after 0.5 hrs by MES test; type: functional, organism-based; parameters: dose 30 mg/kg
Mus musculus [3] = experiment: Anticonvulsant activity in Swiss mouse at 100 mg/kg, ip after 0.5 hrs by MES test; type: functional, organism-based; parameters: dose 100 mg/kg
Mus musculus [4] = experiment: Anticonvulsant activity in Swiss mouse at 100 mg/kg, po after 0.5 hrs by MES test; type: functional, organism-based; parameters: dose 100 mg/kg
Mus musculus [5] = experiment: Anticonvulsant activity in Swiss mouse at 30 mg/kg, ip after 0.5 hrs by PTZ test; type: functional, organism-based; parameters: dose 30 mg/kg
Mus musculus [6] = experiment: Anticonvulsant activity in Swiss mouse at 30 mg/kg, po after 0.5 hrs by PTZ test; type: functional, organism-based; parameters: dose 30 mg/kg
Mus musculus [7] = experiment: Anticonvulsant activity in Swiss mouse at 100 mg/kg, ip after 0.5 hrs by PTZ test; type: functional, organism-based; parameters: dose 100 mg/kg
Mus musculus [8] = experiment: Anticonvulsant activity in Swiss mouse at 100 mg/kg, po after 0.5 hrs by PTZ test; type: functional, organism-based; parameters: dose 100 mg/kg
Mus musculus [9] = experiment: Anticonvulsant activity in Swiss mouse at 30 mg/kg, ip after 4 hrs by PTZ test; type: functional, organism-based; parameters: dose 30 mg/kg
Mus musculus [10] = experiment: Anticonvulsant activity in Swiss mouse at 30 mg/kg, po after 4 hrs by PTZ test; type: functional, organism-based; parameters: dose 30 mg/kg
Mus musculus [11] = experiment: Anticonvulsant activity in Swiss mouse at 100 mg/kg, ip after 4 hrs by PTZ test; type: functional, organism-based; parameters: dose 100 mg/kg
Mus musculus [12] = experiment: Anticonvulsant activity in Swiss mouse at 100 mg/kg, po after 4 hrs by PTZ test; type: functional, organism-based; parameters: dose 100 mg/kg
Mus musculus [13] = experiment: Neurotoxicity against Swiss mouse at 30 mg/kg, ip after 0.5 hrs by rotarod test; type: toxicity, organism-based; parameters: dose 30 mg/kg, route intraperitoneal; settings: in vivo
Mus musculus [14] = experiment: Neurotoxicity against Swiss mouse at 30 mg/kg, po after 0.5 hrs by rotarod test; type: toxicity, organism-based; parameters: dose 30 mg/kg, route oral; settings: in vivo
Mus musculus [15] = experiment: Neurotoxicity against Swiss mouse at 100 mg/kg, ip after 0.5 hrs by rotarod test; type: toxicity, organism-based; parameters: dose 100 mg/kg, route intraperitoneal; settings: in vivo
Mus musculus [16] = experiment: Neurotoxicity against Swiss mouse at 100 mg/kg, po after 0.5 hrs by rotarod test; type: toxicity, organism-based; parameters: dose 100 mg/kg, route oral; settings: in vivo
Mus musculus [17] = experiment: Neurotoxicity against Swiss mouse at 30 mg/kg, ip after 4 hrs by rotarod test; type: toxicity, organism-based; parameters: dose 30 mg/kg, route intraperitoneal; settings: in vivo
Mus musculus [18] = experiment: Neurotoxicity against Swiss mouse at 30 mg/kg, po after 4 hrs by rotarod test; type: toxicity, organism-based; parameters: dose 30 mg/kg, route oral; settings: in vivo
Mus musculus [19] = experiment: Neurotoxicity against Swiss mouse at 100 mg/kg, ip after 4 hrs by rotarod test; type: toxicity, organism-based; parameters: dose 100 mg/kg, route intraperitoneal; settings: in vivo
Mus musculus [20] = experiment: Neurotoxicity against Swiss mouse at 100 mg/kg, po after 4 hrs by rotarod test; type: toxicity, organism-based; parameters: dose 100 mg/kg, route oral; settings: in vivo
Mus musculus [21] = experiment: Anticonvulsant activity in Swiss mouse at 30 mg/kg, ip after 4 hrs by MES test; type: functional, organism-based; parameters: dose 30 mg/kg
Mus musculus [22] = experiment: Anticonvulsant activity in Swiss mouse at 30 mg/kg, po after 4 hrs by MES test; type: functional, organism-based; parameters: dose 30 mg/kg
Mus musculus [23] = experiment: Anticonvulsant activity in Swiss mouse at 100 mg/kg, ip after 4 hrs by MES test; type: functional, organism-based; parameters: dose 100 mg/kg
Mus musculus [24] = experiment: Anticonvulsant activity in Swiss mouse at 100 mg/kg, po after 4 hrs by MES test; type: functional, organism-based; parameters: dose 100 mg/kg

## CC(C)C1=CC2=CC[C@@H]3[C@](C)(CCC[C@@]3(C)C(=O)O)[C@H]2CC1 [ABIETIC ACID]
Mus musculus [1]
  Activity: inactive
Mus musculus [2]
  Activity: inactive
Mus musculus [3]
  Activity: inactive
Mus musculus [4]
  Activity: inactive
Mus musculus [5]
  Activity: inactive
Mus musculus [6]
  Activity: inactive
Mus musculus [7]
  Activity: inactive
Mus musculus [8]
  Activity: inactive
Mus musculus [9]
  Activity: inactive
Mus musculus [10]
  Activity: inactive
Mus musculus [11]
  Activity: inactive
Mus musculus [12]
  Activity: inactive
Mus musculus [13]
  Activity: Non-toxic
Mus musculus [14]
  Activity: Non-toxic
Mus musculus [15]
  Activity: Non-toxic
Mus musculus [16]
  Activity: Non-toxic
Mus musculus [17]
  Activity: Non-toxic
Mus musculus [18]
  Activity: Non-toxic
Mus musculus [19]
  Activity: Non-toxic
Mus musculus [20]
  Activity: Non-toxic
Mus musculus [21]
  Activity: Active
Mus musculus [22]
  Activity: Active
Mus musculus [23]
  Activity: Active
Mus musculus [24]
  Activity: Active
